Source: patent publication US20080070865A1, “TRIPHENYLPHOSPHINE OXIDE DERIVATIVES AND USES THEREOF” (Redpoint Bio Corporation, priority 2006, published 2008)
pIC50: −log10 of the molar value.

Target: T1, human TRPM5 ion channel (Homo sapiens, UniProt Q9NZQ8)
T1 construct: expressed in transfected cells
T1 sequence (Q9NZQ8 1-1165): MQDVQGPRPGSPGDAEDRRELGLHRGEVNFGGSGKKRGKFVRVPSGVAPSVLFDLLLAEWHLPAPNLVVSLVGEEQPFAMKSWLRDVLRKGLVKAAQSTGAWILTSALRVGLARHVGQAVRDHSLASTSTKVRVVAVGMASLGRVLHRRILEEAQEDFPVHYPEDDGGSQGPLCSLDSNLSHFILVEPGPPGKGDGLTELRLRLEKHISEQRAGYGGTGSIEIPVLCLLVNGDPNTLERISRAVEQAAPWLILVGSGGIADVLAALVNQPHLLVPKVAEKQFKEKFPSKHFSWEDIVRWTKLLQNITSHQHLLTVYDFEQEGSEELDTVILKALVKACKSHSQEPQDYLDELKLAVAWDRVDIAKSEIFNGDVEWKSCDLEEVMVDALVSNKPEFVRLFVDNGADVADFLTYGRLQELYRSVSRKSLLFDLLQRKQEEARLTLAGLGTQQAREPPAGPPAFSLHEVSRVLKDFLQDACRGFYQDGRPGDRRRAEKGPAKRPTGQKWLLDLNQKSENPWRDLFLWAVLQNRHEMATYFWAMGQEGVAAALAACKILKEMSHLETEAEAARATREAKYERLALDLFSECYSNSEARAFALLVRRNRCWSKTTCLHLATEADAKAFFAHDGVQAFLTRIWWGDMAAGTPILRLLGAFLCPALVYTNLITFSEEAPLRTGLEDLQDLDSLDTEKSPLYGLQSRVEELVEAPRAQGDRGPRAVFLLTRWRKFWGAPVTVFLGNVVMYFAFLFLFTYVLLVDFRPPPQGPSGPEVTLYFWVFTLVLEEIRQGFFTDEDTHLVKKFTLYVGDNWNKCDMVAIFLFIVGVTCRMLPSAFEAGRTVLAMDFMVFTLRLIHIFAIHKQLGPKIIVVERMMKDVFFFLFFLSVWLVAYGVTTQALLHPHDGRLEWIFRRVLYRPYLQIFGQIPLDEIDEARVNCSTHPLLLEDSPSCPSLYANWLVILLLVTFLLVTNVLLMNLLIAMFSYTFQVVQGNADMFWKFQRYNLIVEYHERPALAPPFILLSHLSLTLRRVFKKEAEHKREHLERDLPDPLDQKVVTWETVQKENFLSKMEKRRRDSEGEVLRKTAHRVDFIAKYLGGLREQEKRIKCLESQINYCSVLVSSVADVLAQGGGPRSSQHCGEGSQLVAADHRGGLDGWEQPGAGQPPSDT
Assay: TRPM5 FLIPR membrane potential assay
Assay type: cell-based
Settings: HEK293 cells stably expressing human TRPM5, membrane potential dye, stimulation with 3 μM ATP
Method: The activity of human TRPM5 ion channel was measured in live cells on a fluorescent imaging plate reader (FLIPR). The basis of the assay (shown in FIG. 1) is the calcium-dependent activation of the ion channel which occurs by activation of a G-protein coupled receptor (GPCR). GPCR activation by an appropriate agonist causes a transient increase in […] Ca^2+ ion concentration which in turn causes the ion channel to open, letting in Na^+ ions. This influx causes a change in the membrane potential of the cell which can be monitored as a change in the fluorescent signal from voltage-dependent (membrane potential) fluorescent dyes. […] For the screening assay, the human TRPM5 gene was cloned, put into HEK293 cells, and a stable, high expression clone was used for screening. Cells were grown in standard media at 37° C. The day before screening, the cells were removed from flasks and added to 384 well clear bottom plates (8K cells in 20 μL/well). On the assay day, 20 μL of membrane potential dye (Part No. R8123, Molecular Devices Corp.) was added to the cells and dye was allowed to be taken up, i.e., load, into the cells for 1 hr at 37° C. […] The assay was started by addition of 10 μL of solution from the compound plate into the cell plate. During this process, continuous fluorescent recordings were made simultaneously for all wells. After addition of the compound solution, the tips were automatically washed and a stimulation solution of 3 μM ATP (an agonist for an endogenous purinurgic GPCR, was added to all wells of the cell plate. The height of the response was calculated and percent inhibition values, versus negative control wells, was calculated for the test samples. Unless otherwise indicated, the data in the table below were determined using the three assays described above, providing percent inhibition data at 10 μM.

Row | SMILES | pIC50
1 | CN(C)c1ccc(P(=O)(c2ccc(N(C)C)cc2)c2ccc(N(C)C)cc2)cc1 [Example 6] | < 4.00
2 | COc1ccccc1P(=O)(c1ccccc1)c1ccccc1 [Example 5] | < 4.00
3 | O=P(c1ccccc1)(c1ccccc1)c1ccc(O)cc1 [Example 3] | 5.30
4 | Nc1ccccc1P(=O)(c1ccccc1)c1ccccc1 [Example 4] | 5.30
5 | O=P(c1ccccc1)(c1ccccc1)c1ccccc1O [Example 2] | 5.30
6 | O=P(c1ccccc1)(c1ccccc1)c1ccccc1 [Example 1] | 5.30
